The results in this text go back to publication PMC10161222, “Small Molecule Decoys of Aggregation for Elimination of Aβ-Peptide Toxicity” (ACS Chemical Neuroscience, 2023).

One may read the IC50 as the concentration that gives 50% inhibition.

In this test the target is T1, Aβ40 (Homo sapiens, UniProt P05067).
T1 construct: gene APP; 40-residue peptide cut from APP; IC50 rows: purchased mixture of HiLyte Fluor 488- and HiLyte Fluor 647-labelled human peptide (AnaSpec); ThT and TEM rows: unlabelled human recombinant peptide; self-associating, small oligomers of at most 8 monomers
In words: FRET-FCS early aggregation, molecular brightness (counts per particle). The note with it: inhibition of oligomer formation; HiLyte 488/647-labelled Aβ40 (about 100 nM + 200 nM), 20 mM HEPES pH 7.4. Type of test: biochemical.

Each structure is given as a SMILES string.

T1 sequence (P05067 672-711 limits assumed): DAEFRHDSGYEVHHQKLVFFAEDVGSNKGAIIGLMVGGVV

Take `COc1cc(-c2ccc(N=Nc3cc(S(=O)(=O)O)c4ccccc4c3O)c(OC)c2)ccc1N=Nc1cc(S(=O)(=O)O)c2ccccc2c1O` [#2, NSC 9615]: the IC50 worked out at 130 nM.
